According to ChEMBL document CHEMBL2021844, “The central valine concept provides an entry in a new class of non peptide inhibitors of the p53-MDM2 interaction” (Bioorg Med Chem Lett, 2012):
pIC50: −log10 of the molar value.

Key:
Protein Mdm4 = molecular target: T1, Protein Mdm4 (Homo sapiens, UniProt O15151); assay: Inhibition of p53 derived peptide binding to MDM4 using fluorescent dye Cy5 by TR-FRET assay
T1 sequence (O15151 whole entry): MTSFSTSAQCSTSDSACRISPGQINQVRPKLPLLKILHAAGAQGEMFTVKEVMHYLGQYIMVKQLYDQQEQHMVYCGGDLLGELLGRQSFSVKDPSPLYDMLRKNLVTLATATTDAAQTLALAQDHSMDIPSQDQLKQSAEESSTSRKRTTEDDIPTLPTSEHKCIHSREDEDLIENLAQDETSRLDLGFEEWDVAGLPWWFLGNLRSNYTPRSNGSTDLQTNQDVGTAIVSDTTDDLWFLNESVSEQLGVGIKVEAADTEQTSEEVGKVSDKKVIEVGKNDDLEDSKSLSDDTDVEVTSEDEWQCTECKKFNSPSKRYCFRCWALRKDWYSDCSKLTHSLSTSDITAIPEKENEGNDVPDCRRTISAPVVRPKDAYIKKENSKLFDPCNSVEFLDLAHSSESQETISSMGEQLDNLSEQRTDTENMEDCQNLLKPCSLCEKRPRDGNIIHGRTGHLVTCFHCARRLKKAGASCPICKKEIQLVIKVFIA

[1] = molecular target: Tumour suppressor p53/oncoprotein Mdm2 (Homo sapiens, UniProt Q00987); assay: Inhibition of p53 (18 to 26)-MDM2 (2 to 188) interaction using fluorescent dye Cy5 by TR-FRET assay; assay type: protein assay
Tumour suppressor p53/oncoprotein Mdm2, sequence (P04637 whole entry): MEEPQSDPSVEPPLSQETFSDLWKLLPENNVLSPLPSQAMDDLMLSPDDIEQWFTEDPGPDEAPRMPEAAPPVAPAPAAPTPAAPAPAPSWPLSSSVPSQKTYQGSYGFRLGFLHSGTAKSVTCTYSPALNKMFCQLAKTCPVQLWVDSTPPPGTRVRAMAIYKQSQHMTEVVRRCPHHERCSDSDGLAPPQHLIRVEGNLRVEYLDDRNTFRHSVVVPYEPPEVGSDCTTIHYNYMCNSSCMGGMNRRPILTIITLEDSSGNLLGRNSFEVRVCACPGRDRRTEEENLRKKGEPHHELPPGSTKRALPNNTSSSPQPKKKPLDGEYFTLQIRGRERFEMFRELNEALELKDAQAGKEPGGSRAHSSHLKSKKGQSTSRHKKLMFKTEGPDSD
Tumour suppressor p53/oncoprotein Mdm2, sequence (Q00987 whole entry): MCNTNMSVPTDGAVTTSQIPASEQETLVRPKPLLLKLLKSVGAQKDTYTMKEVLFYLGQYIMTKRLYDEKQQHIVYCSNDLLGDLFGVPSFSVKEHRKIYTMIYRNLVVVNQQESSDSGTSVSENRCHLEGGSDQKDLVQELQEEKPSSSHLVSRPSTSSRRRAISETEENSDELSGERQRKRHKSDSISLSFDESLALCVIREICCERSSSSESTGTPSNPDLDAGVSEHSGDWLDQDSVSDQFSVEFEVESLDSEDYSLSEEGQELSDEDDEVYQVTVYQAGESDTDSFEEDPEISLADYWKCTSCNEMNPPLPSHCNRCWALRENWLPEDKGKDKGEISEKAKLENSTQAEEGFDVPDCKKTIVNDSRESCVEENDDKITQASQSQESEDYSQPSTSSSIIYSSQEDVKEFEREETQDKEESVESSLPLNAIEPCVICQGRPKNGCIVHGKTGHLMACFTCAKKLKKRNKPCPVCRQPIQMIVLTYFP

SJSA-1 [2] = assay: Antiproliferative activity against human SJSA1 cells expressing p53; assay type: functional, cell-based
SJSA-1 [3] = assay: Ratio of IC50 for human SJSA1 cells expressing p53 to IC50 for human p53 deficient SAOS2 cells; assay type: functional

pIC50 (Protein Mdm4) | pIC50 [1] | SMILES | pIC50 (SJSA-1 [2]) | Ratio IC50 (SJSA-1 [3])
4.15 | 5.47 | COc1ccc(Cn2c(C)nc(Cc3ccc(N)cc3)c2Cc2ccc(Cl)cc2)cc1 |  | 
4.66 | 6.70 | Clc1ccc(Cn2cnc(-c3ccccc3)c2-c2c[nH]c3cc(Cl)ccc23)cc1 |  | 
4.74 | 6.05 | CC(C)CCn1cnc(-c2ccccc2)c1-c1c[nH]c2cc(Cl)ccc12 |  | 

SMILES | pIC50 (Protein Mdm4) | pIC50 [1] | pIC50 (SJSA-1 [2]) | Ratio IC50 (SJSA-1 [3])
O=C(NCCN1CCOCC1)c1[nH]c2cc(Cl)ccc2c1-c1c(-c2ccccc2)ncn1Cc1ccc(Cl)cc1 | 4.72 |  | 5.14 | 3
